From the NIST ThermoML archive (doi:10.1021/je400539h)

Test: xn = mol fraction of the nth substance listed
Conditions: 101 kPa, Liquid

C1COCCO1 [1,4-dioxane] + CCCCCCOC(C)=O
x2 = 0
Conditions | mass density [kg/m3] | speed of sound [m/s] | viscosity [mPa·s]
298.15 K | 1028.2 | 1328 | 1.159
303.15 K | 1022.7 | 1320 | 1.087
308.15 K | 1017.4 | 1312 | 1.013
313.15 K | 1011.1 | 1304 | 0.934

C=COCCCC [1-(ethenyloxy)butane] + CCCCCCOC(C)=O
Conditions | mass density [kg/m3] | speed of sound [m/s] | viscosity [mPa·s]
298.15 K, x2 = 0 | 780.2 | 1096 | 0.4
298.15 K, x2 = 0.0806 | 790.9 | 1100 | 0.44
298.15 K, x2 = 0.1668 | 801.3 | 1104 | 0.486
298.15 K, x2 = 0.2521 | 810.8 | 1112 | 0.538
298.15 K, x2 = 0.3443 | 820.3 | 1120 | 0.596
298.15 K, x2 = 0.4384 | 829.2 | 1128 | 0.657
298.15 K, x2 = 0.5392 | 838.1 | 1144 | 0.726
298.15 K, x2 = 0.644 | 846.6 | 1160 | 0.798
298.15 K, x2 = 0.7555 | 854.7 | 1180 | 0.879
298.15 K, x2 = 0.8741 | 862.1 | 1204 | 0.965
303.15 K, x2 = 0 | 774.1 | 1084 | 0.387
303.15 K, x2 = 0.0806 | 784.6 | 1088 | 0.423
303.15 K, x2 = 0.1668 | 795.1 | 1088 | 0.465
303.15 K, x2 = 0.2521 | 804.8 | 1096 | 0.508
303.15 K, x2 = 0.3443 | 814.5 | 1104 | 0.559
303.15 K, x2 = 0.4384 | 823.7 | 1112 | 0.615
303.15 K, x2 = 0.5392 | 832.8 | 1124 | 0.675
303.15 K, x2 = 0.644 | 841.3 | 1140 | 0.739
303.15 K, x2 = 0.7555 | 849.5 | 1160 | 0.812
303.15 K, x2 = 0.8741 | 857.1 | 1184 | 0.891
308.15 K, x2 = 0 | 768.2 | 1072 | 0.365
308.15 K, x2 = 0.0806 | 778.6 | 1072 | 0.398
308.15 K, x2 = 0.1668 | 789.1 | 1072 | 0.434
308.15 K, x2 = 0.2521 | 798.8 | 1076 | 0.474
308.15 K, x2 = 0.3443 | 808.7 | 1084 | 0.52
308.15 K, x2 = 0.4384 | 818.1 | 1092 | 0.567
308.15 K, x2 = 0.5392 | 827.4 | 1104 | 0.622
308.15 K, x2 = 0.644 | 836.3 | 1120 | 0.681
308.15 K, x2 = 0.7555 | 844.8 | 1140 | 0.745
308.15 K, x2 = 0.8741 | 852.7 | 1164 | 0.817
313.15 K, x2 = 0 | 763.3 | 1060 | 0.354
313.15 K, x2 = 0.0806 | 773.6 | 1056 | 0.385
313.15 K, x2 = 0.1668 | 784 | 1056 | 0.418
313.15 K, x2 = 0.2521 | 793.7 | 1060 | 0.454
313.15 K, x2 = 0.3443 | 803.6 | 1064 | 0.496
313.15 K, x2 = 0.4384 | 813 | 1072 | 0.538
313.15 K, x2 = 0.5392 | 822.3 | 1084 | 0.588
313.15 K, x2 = 0.644 | 831.2 | 1100 | 0.641
313.15 K, x2 = 0.7555 | 839.7 | 1120 | 0.7
313.15 K, x2 = 0.8741 | 847.7 | 1144 | 0.763

COc1ccccc1 [anisole] + CCCCCCOC(C)=O
x2 = 0
Conditions | mass density [kg/m3] | speed of sound [m/s] | viscosity [mPa·s]
298.15 K | 993.6 | 1396 | 0.97
303.15 K | 989.4 | 1380 | 0.917
308.15 K | 984.6 | 1364 | 0.863
313.15 K | 980 | 1348 | 0.803

CCCCCCOC(C)=O [hexyl ethanoate] + C1CCOC1
Conditions | mass density [kg/m3] | speed of sound [m/s] | viscosity [mPa·s]
298.15 K, x1 = 0.0514 | 882.2 | 1260 | 0.485
298.15 K, x1 = 0.1091 | 882.2 | 1256 | 0.526
298.15 K, x1 = 0.1735 | 882.1 | 1248 | 0.57
298.15 K, x1 = 0.2467 | 881.7 | 1240 | 0.616
298.15 K, x1 = 0.3289 | 880.9 | 1236 | 0.669
298.15 K, x1 = 0.4241 | 879.6 | 1232 | 0.73
298.15 K, x1 = 0.5384 | 877.8 | 1232 | 0.79
298.15 K, x1 = 0.6648 | 875.5 | 1232 | 0.875
298.15 K, x1 = 0.8185 | 872.4 | 1232 | 0.967
298.15 K, x1 = 1 | 868.3 | 1236 | 1.071
303.15 K, x1 = 0.0514 | 878.8 | 1236 | 0.471
303.15 K, x1 = 0.1091 | 878.6 | 1232 | 0.504
303.15 K, x1 = 0.1735 | 878.3 | 1224 | 0.543
303.15 K, x1 = 0.2467 | 877.6 | 1212 | 0.584
303.15 K, x1 = 0.3289 | 876.6 | 1208 | 0.632
303.15 K, x1 = 0.4241 | 875.2 | 1204 | 0.683
303.15 K, x1 = 0.5384 | 873.3 | 1204 | 0.745
303.15 K, x1 = 0.6648 | 870.9 | 1204 | 0.812
303.15 K, x1 = 0.8185 | 867.7 | 1204 | 0.892
303.15 K, x1 = 1 | 863.9 | 1216 | 0.982
308.15 K, x1 = 0.0514 | 872.9 | 1216 | 0.456
308.15 K, x1 = 0.1091 | 872.7 | 1208 | 0.484
308.15 K, x1 = 0.1735 | 872.4 | 1200 | 0.518
308.15 K, x1 = 0.2467 | 871.9 | 1188 | 0.554
308.15 K, x1 = 0.3289 | 871.2 | 1184 | 0.595
308.15 K, x1 = 0.4241 | 870 | 1180 | 0.641
308.15 K, x1 = 0.5384 | 868.2 | 1180 | 0.692
308.15 K, x1 = 0.6648 | 866 | 1180 | 0.751
308.15 K, x1 = 0.8185 | 863 | 1180 | 0.819
308.15 K, x1 = 1 | 859.8 | 1196 | 0.898
313.15 K, x1 = 0.0514 | 866.7 | 1200 | 0.416
313.15 K, x1 = 0.1091 | 866.5 | 1188 | 0.444
313.15 K, x1 = 0.1735 | 866.2 | 1176 | 0.475
313.15 K, x1 = 0.2467 | 865.8 | 1168 | 0.508
313.15 K, x1 = 0.3289 | 865.2 | 1164 | 0.547
313.15 K, x1 = 0.4241 | 864.2 | 1156 | 0.591
313.15 K, x1 = 0.5384 | 862.6 | 1152 | 0.639
313.15 K, x1 = 0.6648 | 860.5 | 1152 | 0.695
313.15 K, x1 = 0.8185 | 857.8 | 1152 | 0.761
313.15 K, x1 = 1 | 855 | 1176 | 0.836
